Data reported in patent US8603737B2, “Methods for identifying HCV protease inhibitors” (priority 2008, dated 2013).

What was measured:
[1] = system: HCV NS3/4A genotypes 1a, 1b, 2a, and 3a; assay: Mass spectrometric analysis of covalent modification, NS3/4A genotypes; type: binding; details: 3 hours reaction, each genotype 1a, 10-fold excess of compound
Description: Mass spectrometric analysis of HCV wild type or HCV variants (C159S, A156S, R155K, D168A, A156T, and D168V) in the presence of test compound was performed. 100 pmols of HCV wild type (Bioenza Calif.) was incubated with test compound for 1 hr and 3 hrs at 10-fold excess of test compound to protein. 1 μL aliquots of the samples (total volume of 4.24 μL) were diluted with 10 μL of 0.1% TFA prior to micro C4 ZipTipping directly onto the MALDI target using Sinapinic acid as the desorption matrix (10 mg/mL in 0.1% TFA:Acetonitrile 50:50). Analyses were performed on a Shimadzu Biotech Axima TOF (Shimadzu Instruments) matrix-assisted-laser desorption/ionization Time-of-Flight (MALDI-TOF) mass spectrometer. The same procedure was carried out on 100 pmols of HCV C159S mutant of HCV protease for 3 hrs at 10-fold excess of test compound to protein.
In addition, mass spectrometric analysis of HCV NS3/4A genotypes 1a, 1b, 2a, and 3a in the presence of test compound was performed using the above protocol.

[2] = biological target: T1, NS3 protease self-cleavage in Huh-7-Luc-Neo-ET cells (Hepatitis C virus genotype 1b, UniProt Q9WMX2, E1202G/T1280I); type: cell-based, HCV; details: wild type replicon cells
T1 construct: host or cells: Huh-7-Luc-Neo-ET replicon cells (human hepatoma Huh7)
Description: Inhibition of Protease Self Cleavage
The remaining wells were rinsed 2× with PBS then fed with Replicon Media and returned to the incubator.
(§1) Cell lysates were separated by SDS-Page (4-20%) and transferred to Immobilon-P PVDF membrane (Millipore Corporation, MA) and blotted with polyclonal anti NS3 antibody (Bioenza, Calif.). Blots were scanned on an Odyssey infrared scanner from Licor and the FL band and cleavage products were quantified separately using the Licor software provided with the scanner. The cleavage product was calculated as a percentage of the total NS3 in each sample and then normalized to the DMSO control so that the DMSO control reflects 100% activity.

[3] = system: HCV RNA replicon in cell line ET (luc-ubi-neo/ET), human Huh7 hepatoma; assay: Luciferase reporter replicon assay (Example 5, Method C); type: cell-based; details: Hepatitis C virus, Huh-7, 72 hr, EC90, read-out: Inhibition, Replicon, EC90 value
Description: Method C: Luciferase Reporter Assay Protocol
The compounds were assayed to evaluate the antiviral activity and cytotoxicity of compounds using replicon-derived luciferase activity. This assay used the cell line ET (luc-ubi-neo/ET), which is a human Huh7 hepatoma cell line that contains an HCV RNA replicon with a stable luciferase (Luc) reporter and three cell culture-adaptive mutations. The ET cell line was grown in a 5% CO2 incubator at 37° C. in Dulbecco's modified essential media (DMEM), supplemented with 2 mM L-glutamine (“1%”), nonessential amino acids, 100 U of penicillin/mL, 100 μg of streptomycin/mL (“1%”), 10% fetal bovine serum and 400 μg/mL G418 (Geneticin; Invitrogen).
All cell culture reagents were obtained from Invitrogen (Carlsbad). Cells were trypsinized (1% trypsin:EDTA) and plated out at 5×10^3 cells/well in white 96-well assay plates (Costar) dedicated to cell number (cytotoxicity) or antiviral activity assessments. Test compounds were added at six 3-fold serial dilutions each and the assay was run in DMEM, 5% FBS, 1% pen-strep, 1% glutamine, 1% non essential amino acid. Human interferon alpha-2b (PBL Biolabs, New Brunswick, N.J.) was included in each run as a positive control compound. Cells were processed 72 hr post test compound addition when the cells were still subconfluent. Antiviral activity was measured by analyzing replicon-derived luciferase activity using the Steady-Glo Luciferase Assay System (Promega, Madison, Wis.) according to manufacturer's instruction. The number of cells in each well was determined by Cell Titer Blue Assay (Promega). Compound profile was derived by calculating applicable EC50 (effective concentration inhibiting virus replication by 50%), EC90 (effective concentration inhibiting virus replication by 90%), IC50 (concentration decreasing cell viability by 50%) and SI50 (selective index: […]) values.

[4] = biological target: T2, NS3 protease R155K self-cleavage in modified replicon system (Hepatitis C virus genotype 1b, UniProt Q9WMX2, E1202G/R1181K/T1280I); assay: Inhibition of protease self cleavage in R155K modified replicon system (washout); type: cell-based, HCV; details: R155K modified replicon system (FIG. 6)
T2 construct: expressed in transfected cells; host or cells: replicon cells carrying the R155K-mutated pFK-I389-luc-ubi-neo-NS3-3'ET replicon
Description: Constructs containing clinically relevant mutations were generated by performing site-directed mutagenesis on the pFK-1389-luc-ubi-neo-NS3-3′ET plasmid (ReBLikon Gmbh (Heidelberg, Germany)). using the QuickChange II Site-Directed Mutagenesis Kit (Stratagene, La Jolla, Calif.) according to manufacturer's directions and with the primers described in Table 2.
Huh-7-Luc-Neo-ET cells were plated in Replicon Assay Medium (RPMI supplemented with 5% FBS, 1× non-essential amino acids and pen/strep) at a density of 1×10^5 cells/well in 12 well plates. Eight hours later the media was removed and replaced with 1 mL media containing test compound (5 wells per compound) and 0.02% DMSO and the cells were returned to the incubator overnight. […]
as §1, with “activity. […]” for “activity.”

[5] = biological target: T3, D168V mutant of the HCV NS3/4A 1b protease enzyme (Hepatitis C virus genotype 1b, UniProt P26663, D1194V); assay: HCV protease FRET assay, D168V mutant; type: biochemical; details: read-out: Inhibition, HCV D168V (IC50)
T3 construct: 10× stocks of NS3/4A protease enzyme from Bioenza; purchased Bioenza (Mountain View, Calif.)
Description: HCV Protease FRET Assay for Mutated NS3/4A 1b Enzymes
The protocol is a modified FRET-based assay (v—02) from In Vitro Resistance Studies of HCV Serine Protease Inhibitors, 2004, JBC, vol. 279, No. 17, pp 17508-17514. Inherent potency of compounds was assessed against A156S, A156T, D168A, and D168V mutants of the HCV NS3/4A 1b protease enzyme as follows:
Assay buffer: 2% CHAPS, 50 mM Tris pH 7.5, 50% glycerol, 2 μM M-2235 (Bachem) substrate. In a 50 μl reaction, add 49 μl assay buffer, 1 μl (1 U) HCV serine protease (Bioenza). Incubate 20 minutes at room temperature. The plate was read at either 350/460 nm (excitation/emission) on a fluorescent micro-plate reader or monitored at one-minute intervals to achieve the kinetic curve.
10× stocks of NS3/4A protease enzyme from Bioenza (Mountain View, Calif.) and 1.13×5-FAM/QXL™520 FRET peptide substrate from Anaspec (San Jose, Calif.) were prepared in 50 mM HEPES, pH 7.8, 100 mM NaCl, 5 mM DTT and 20% glycerol. 5 μL of each enzyme were pre-incubated in a Corning (#3573) 384-well, black, non-treated microtiter plate (Corning, N.Y.) for 30 min at 25° C. with a 0.5 μL volume of 50% DMSO and serially diluted compounds prepared in 50% DMSO. Protease reactions were started with the addition of 45 μL of the FRET substrate and monitored for 120 minutes at λex487/λem514 through Quad^4 monochromoters in a Synergy^4 plate reader from BioTek (Winooski, Vt.). […] Initial velocity (0 minutes to 30+ minutes) from each reaction was determined from the slope of a plot of relative fluorescence units vs time (minutes) and then plotted against inhibitor concentration to estimate IC50 from log[Inhibitor] vs Response, Variable Slope model in GraphPad Prism from GraphPad Software (San Diego, Calif.). […]
The following protocol was used to generate “apparent” IC50 (IC50—APP)) values as depicted in Table 3, below. […] Protease reactions were immediately started after enzyme addition with the addition of 45 μL of the FRET substrate and monitored for 60-90 minutes at λex485/λem520 in a Synergy^4 plate reader from BioTek (Winooski, Vt.). […]

`C=C[C@@H]1C[C@]1(NC(=O)[C@@H]1C[C@@H](Oc2nccc3cc(OC)ccc23)CN1C(=O)[C@H](CCC(=O)C=C(C)C)NC(=O)OC(C)(C)C)C(=O)NS(=O)(=O)C1CC1` [Compound 5] was tested. Which “covalent modification of HCV NS3/4A (mass spectrometry)” value [1] did it give?
The value was “measurable covalent modification”.

Which “return of NS3 self-cleavage activity after drug removal” value ([2]; 16 hours incubation, in as little as 4 hours after drug removal) does the source give for `CCC[C@H](NC(=O)[C@@H]1[C@H]2CCC[C@H]2CN1C(=O)[C@@H](NC(=O)[C@@H](NC(=O)c1cnccn1)C1CCCCC1)C(C)(C)C)C(=O)C(=O)NC1CC1` [Compound 1, reference compound] here?
Its value is “virtually complete return of activity”.

How did the EC90 [3] turn out when `C=C[C@@H]1C[C@]1(NC(=O)[C@@H]1C[C@@H]2CN1C(=O)[C@H](CCC(=O)C=C(C)C)NC(=O)OCCC/C=C/c1ccc3ccnc(c3c1)O2)C(=O)NS(=O)(=O)C1CC1` [Compound 6] was run?
The EC90 was < 10 nM.

With `C=CC(=O)N[C@H](C)C(=O)N1C[C@H](Oc2cc(-c3ccccc3)nc3cc(OC)ccc23)C[C@H]1C(=O)N[C@]1(C(=O)NS(=O)(=O)C2CC2)C[C@H]1C=C` [Compound 7] as the compound, how does the “duration of inhibition of mutant protease activity after compound removal” value [4] read?
The value was “at least 24 hours”.

And the IC50 [5]?
The IC50 was 100 to 1000 nM.

What about the “inhibition of NS3 self-cleavage after compound removal” value ([2]; up to 24 hours after compound removal (FIG. 5)) of the same compound?
The value was “virtually complete inhibition”.
